Laboratory results taken from PubChem BioAssay AID328 (DTP/NCI, 2004).
Several values for one entry are separate records, joined by “and”; a condition that tells them apart may be missing. Equal values may be shown once. Toxic doses and inconclusive results are not listed.

Tested on: BDF1 mice, P388 leukemia ip, median survival T/C
Assay: NCI In Vivo Anticancer Drug Screen. Data for tumor model P388 Leukemia (intraperitoneal) in B6D2F1 (BDF1) mice
Settings: endpoint: median survival time, higher = longer survival
In short: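 Each value expresses how treatment altered survival: treated-mouse outcome over vehicle-mouse outcome, both groups bearing the transplanted tumour.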

[1] = dose: 50.0 mg/kg/injection, schedule: Q01DX009 (ip), vehicle: saline with Tween-80
[2] = dose: 100.0 mg/kg/injection, schedule: Q01DX009 (ip), vehicle: saline with Tween-80
[3] = dose: 200.0 mg/kg/injection, schedule: Q01DX009 (ip), vehicle: saline with Tween-80
[4] = dose: 100.0 mg/kg/injection, schedule: Q04DX003 (ip), vehicle: saline with Tween-80
[5] = dose: 100.0 mg/kg/injection, schedule: Q01DX009 (ip), vehicle: saline
[6] = dose: 100.0 mg/kg/injection, schedule: Q04DX003 (ip), vehicle: saline
[7] = dose: 200.0 mg/kg/injection, schedule: Q04DX003 (ip), vehicle: saline

Cc1ccc(S(=O)(=O)N(C)c2ccccc2C(=O)O)cc1
T/C (dose: 100.0 mg/kg/injection, schedule: Q01DX001 (ip), vehicle: saline sonified): 100 % of control
T/C (dose: 200.0 mg/kg/injection, schedule: Q01DX001 (ip), vehicle: saline sonified): 95 % of control
T/C (dose: 400.0 mg/kg/injection, schedule: Q01DX001 (ip), vehicle: saline sonified): 100 % of control

COc1ccc(C(=O)CC(c2ccc3c(c2)OCO3)c2c(O)c3ccccc3oc2=O)cc1OC (stereo unspecified)
T/C (dose: 25.0 mg/kg/injection, schedule: Q01DX009 (ip), vehicle: saline with Tween-80): 91 % of control
T/C [1]: 116 % of control
T/C (dose: 75.0 mg/kg/injection, schedule: Q01DX009 (ip), vehicle: saline with Tween-80): 88 % of control
T/C [2]: 97 % of control and 123 % of control
T/C (dose: 150.0 mg/kg/injection, schedule: Q01DX009 (ip), vehicle: saline with Tween-80): 101 % of control
T/C [3]: 87 % of control

CCOC(=O)C(NC(=O)C(Cc1ccc(N(CCCl)CCCl)cc1)NC(C)=O)C(C)C (stereo unspecified)
T/C (dose: 5.0 mg/kg/injection, schedule: Q04DX003 (ip), vehicle: other): 118 % of control
T/C (dose: 10.0 mg/kg/injection, schedule: Q04DX003 (ip), vehicle: other): 118 % of control
T/C (dose: 40.0 mg/kg/injection, schedule: Q04DX003 (ip), vehicle: other): 151 % of control
T/C (dose: 66.0 mg/kg/injection, schedule: Q04DX003 (ip), vehicle: saline with Tween-80): 168 % of control
T/C [4]: 186 % of control
T/C (dose: 150.0 mg/kg/injection, schedule: Q04DX003 (ip), vehicle: saline with Tween-80): 245 % of control

O=c1c2ccccc2ncn1-c1ccc(Cl)cc1
T/C [1]: 97 % of control
T/C [2]: 100 % of control
T/C [3]: 100 % of control

O=C(/C=C(\Cl)C(=O)NO)NO
T/C (dose: 11.0 mg/kg/injection, schedule: Q01DX009 (ip), vehicle: saline): 103 % of control
T/C (dose: 16.0 mg/kg/injection, schedule: Q01DX009 (ip), vehicle: saline): 107 % of control
T/C [5]: 154 % of control

O=C(Nc1ccc([N+](=O)[O-])cc1Cl)N(CCO)C1CCCCC1
T/C [2]: 105 % of control
T/C [3]: 100 % of control
T/C (dose: 400.0 mg/kg/injection, schedule: Q01DX009 (ip), vehicle: saline with Tween-80): 90 % of control

C[C@@H](O)[C@@H](O)c1cnc2nc(N)[nH]c(=O)c2n1
T/C (dose: 50.0 mg/kg/injection, schedule: Q01DX005 (ip), vehicle: saline with Tween-80): 100 % of control
T/C (dose: 100.0 mg/kg/injection, schedule: Q01DX005 (ip), vehicle: saline with Tween-80): 91 % of control
T/C (dose: 200.0 mg/kg/injection, schedule: Q01DX005 (ip), vehicle: saline with Tween-80): 115 % of control

COP1(=O)OCC2OC(n3cnc4c(N)ncnc43)C(O)C2O1 (stereo unspecified)
T/C [5]: 88 % of control

CCP(CC)c1ccccc1
T/C (dose: 100.0 mg/kg/injection, schedule: Q01DX009 (sc), vehicle: olive oil, sesame oil, peanut oil): 96 % of control
T/C (dose: 100.0 mg/kg/injection, schedule: Q04DX003 (sc), vehicle: olive oil, sesame oil, peanut oil): 92 % of control
T/C (dose: 200.0 mg/kg/injection, schedule: Q01DX009 (sc), vehicle: olive oil, sesame oil, peanut oil): 96 % of control
T/C (dose: 200.0 mg/kg/injection, schedule: Q04DX003 (sc), vehicle: olive oil, sesame oil, peanut oil): 100 % of control
T/C (dose: 400.0 mg/kg/injection, schedule: Q01DX009 (sc), vehicle: olive oil, sesame oil, peanut oil): 88 % of control
T/C (dose: 400.0 mg/kg/injection, schedule: Q04DX003 (sc), vehicle: olive oil, sesame oil, peanut oil): 92 % of control

O=C(C[n+]1ccccc1)N/N=C/c1ccc(O)c(O)c1
T/C [2]: 100 % of control
T/C [4]: 95 % of control
T/C [3]: 104 % of control
T/C (dose: 200.0 mg/kg/injection, schedule: Q04DX003 (ip), vehicle: saline with Tween-80): 86 % of control

Nc1noc(N)n1
T/C [6]: 109 % of control
T/C [7]: 100 % of control
T/C (dose: 400.0 mg/kg/injection, schedule: Q04DX003 (ip), vehicle: saline): 104 % of control

CCNC(C)(C)C(Cl)c1cccs1 (stereo unspecified)
T/C (dose: 0.78 mg/kg/injection, schedule: Q01DX009 (ip), vehicle: saline): 101 % of control
T/C (dose: 1.56 mg/kg/injection, schedule: Q01DX009 (ip), vehicle: saline): 110 % of control
T/C (dose: 3.12 mg/kg/injection, schedule: Q01DX009 (ip), vehicle: saline): 90 % of control
T/C (dose: 6.25 mg/kg/injection, schedule: Q01DX009 (ip), vehicle: saline): 92 % of control and 106 % of control
T/C (dose: 25.0 mg/kg/injection, schedule: Q01DX009 (ip), vehicle: saline): 87 % of control
T/C (dose: 50.0 mg/kg/injection, schedule: Q01DX009 (ip), vehicle: saline): 87 % of control and 112 % of control
T/C (dose: 50.0 mg/kg/injection, schedule: Q04DX003 (ip), vehicle: saline): 100 % of control
T/C [5]: 114 % of control
T/C [6]: 118 % of control
T/C [7]: 86 % of control
